Experimental data reported in patent US5070089A, “Therapeutic agent for liver disease and piperazine derivatives” (Nippon Chemiphar Co., Ltd., priority 1988, dated 1991).
Read-outs that look alike come from different tables or passages of the source.

Legend:
[1] = test system: acute liver disease caused by CCl4 (Wister-strain rat); assay: Preventive action on deviation of GOT value and GPT value in vivo using model of acute liver disease caused by CCl4; conditions: rat, 30 mg/kg, 3 hour before oral CCl4
Protocol: CCl4 in olive oil (concentration: 50%) was orally administered to a Wister-strain rat (body weight: 170-180 g) fasted for 24 hrs., at a dose of 1 ml/kg, to cause acute liver disease. […] For control group, 1.0% methylcellulose (MC) was administered in place of the piperazine derivative. For normal group, a simple olive oil was administered in place of the CCl4 -containing olive oil. For the administration, the piperazine derivative was employed in the form of a dispersion in aqueous MC solution (concentration: 1.0%). At 24 hours after the administration of CCl4, the rat was abdominally sectioned under ether anesthesia. From the abrominal large vein, a blood was collected. The collected blood was subjected to centrifugal separation at 3,000 r.p.m. for 10 min to obtain its plasma. […] The results are set forth in Table 4 in terms of a ratio (%) of suppression (prevention) of GOT or GPT. In Table 4, "***" means 90-100%, "**" means 60-90%, and "*" means 30-60%. The ratio of suppression is calculated according to the following equation. [formula]

[2] = test system: lipid peroxidation in rat hepatocyte; assay: Inhibitory action on lipid peroxidation (rat hepatocyte, TBA color formation, absorbance at 530 nm); format: biochemical; conditions: 37° C., 1 hour; for Inhibition ratio (at Final Concentration of Tested Compound) 10^-4 M: final concentration 10^-4 M, 100 µM; for Inhibition ratio (at Final Concentration of Tested Compound) 10^-5 M: final concentration 10^-5 M, 10 µM
Protocol: A hepatocyte was isolated from rat according to the method of Ui et al (Hiroshi Oka and Tadao Ui: "Isolated Cells--Experimental and Application",page 91). The determination of lipid peroxidation was performed using a died hepatocyte which had been frozen at -85° C. and stored at the temperature and which was melted when the experimental was done. […] The centrifugal tube was shaken at 37° C. for 1 hour for performing a reaction, and then placed into an ice-water bath to terminate the reaction. […] The centrifugal tube was taken out of the ice-water bath and placed in a water bath (kept at 95°-98° C.). The content of the tube was heated in the bath for 1 hour for developing color-formation. After the heating was complete, the content of the tube was cooled and subjected to centrifugal separation. The inhibitory action on lipid peroxidation of the sample was determined by measuring absorbance at 530 nm. The determined inhibitory action is expressed inhibition ratio by percent (%) calculated by the following equation: [formula] In Table 3, the number of the tested compound corresponds to the identical number set forth in Tables 1 and 2 for identifying the compounds of the invention.

[3] = plasma GOT at 24 hours after CCl4, read-out: ratio (%) of suppression (prevention) of GOT
[4] = plasma GPT at 24 hours after CCl4, read-out: ratio (%) of suppression (prevention) of GPT

Row | Structure (SMILES) | inhibition in vivo at 30 mg/kg [1, 3] | inhibition in vivo at 30 mg/kg [1, 4] | Inhibition ratio (at Final Concentration of Tested Compound) 10^-4 M [2] | Inhibition ratio (at Final Concentration of Tested Compound) 10^-5 M [2] | Inhibition ratio (at Final Concentration of Tested Compound) 10^-4 M ([2]; 60 min)
1 | CSC(=S)N1CCN(Cc2ccccc2)CC1 [Compound 1] | 30 to 60% | 30 to 60% |  |  | 
2 | CSC(=S)N1CCN(Cc2ccccc2Cl)CC1 [Compound 2, Methyl 4-(2-chlorobenzyl)-1-piperazinecarbodithioate] | 30 to 60% |  |  |  | 
3 | CSC(=S)N1CCN(Cc2ccccc2C)CC1 [Compound 3, Methyl 4-(2-methylbenzyl)-1-piperazinecarbodithioate] | 60 to 90% | 60 to 90% |  |  | 
4 | COc1cccc(CN2CCN(C(=S)SC)CC2)c1 [Compound 6, Methyl 4-(3-methoxybenzyl)-1-piperazinecarbodithioate] | 90 to 100% | 90 to 100% |  |  | 
5 | COc1ccc(CN2CCN(C(=S)SC)CC2)cc1 [Compound 7, Methyl 4-(4-methoxybenzyl)-1-piperazinecarbodithioate] | 60 to 90% | 30 to 60% |  |  | 
6 | CSC(=S)N1CCN(Cc2ccccc2SC)CC1 [Compound 9, Methyl 4-(2-methylthiobenzyl)-1-piperazinecarbodithioate] | 60 to 90% | 60 to 90% |  |  | 
7 | CSC(=S)N1CCN(Cc2ccccc2[N+](=O)[O-])CC1 [Compound 10, Methyl 4-(2-nitrobenzyl)-1-piperazinecarbodithioate] | 60 to 90% | 30 to 60% |  |  | 
8 | CSC(=S)N1CCN(Cc2ccccc2N)CC1 [Compound 11, Methyl 4-(2-aminobenzyl)-1-piperazinecarbodithioate] | 90 to 100% | 90 to 100% | 98.6% | 95.5% | 
9 | CSC(=S)N1CCN(Cc2ccccc2N(C)C)CC1 [Compound 13, Methyl 4-(2-dimethylaminobenzyl)-1-piperazinecarbodithioate] | 30 to 60% | 30 to 60% | 98.9% | 95.4% | 
10 | CSC(=S)N1CCN(Cc2cccc(O)c2O)CC1 [Compound 15, Methyl 4-(2,3-dihydroxybenzyl)-1-piperazinecarbodithioate] | 90 to 100% | 90 to 100% |  |  | 
11 | COc1cccc(CN2CCN(C(=S)SC)CC2)c1O [Compound 18, Methyl 4-(2-hydroxy-3-methoxybenzyl)-1-piperazinecarbodithioate] | 60 to 90% | 60 to 90% |  |  | 
12 | COc1ccc(O)c(CN2CCN(C(=S)SC)CC2)c1 [Compound 20, Methyl 4-(2-hydroxy-5-methoxybenzyl)-1-piperazinecarbodithioate] | 60 to 90% | 60 to 90% |  |  | 
13 | CSC(=S)N1CCN(Cc2cc(OC(C)=O)ccc2O)CC1 [Compound 21, Methyl 4-(5-acetoxy-2-hydroxybenzyl)-1-piperazinecarbodithioate] | 60 to 90% | 60 to 90% |  |  | 
14 | COc1ccc(CN2CCN(C(=S)SC)CC2)cc1OC [Compound 31, Methyl 4-(3,4-dimethoxybenzyl)-1-piperazinecarbodithioate] | 60 to 90% | 30 to 60% |  |  | 
15 | CSC(=S)N1CCN(Cc2ccc(OC(C)=O)c(OC(C)=O)c2OC(C)=O)CC1 [Compound 34, Methyl 4-(2,3,4-triacetoxybenzyl)-1-piperazinecarbodithioate] |  | 30 to 60% |  |  | 
16 | COc1ccc(CN2CCN(C(=S)SC)CC2)c(O)c1OC [Compound 35, Methyl 4-(3,4-dimethoxy-2-hydroxybenzyl)-1-piperazinecarbodithioate] | 60 to 90% | 60 to 90% |  |  | 
17 | COc1cc(O)c(CN2CCN(C(=S)SC)CC2)c(OC)c1 [Compound 37, Methyl 4-[(4,6-dimethoxy-2-hydroxy)benzyl]-1-piperazinecarbodithioate] | 60 to 90% | 60 to 90% |  |  | 

Row | Structure (SMILES) | inhibition in vivo at 30 mg/kg [1, 3] | inhibition in vivo at 30 mg/kg [1, 4] | Inhibition ratio (at Final Concentration of Tested Compound) 10^-4 M [2] | Inhibition ratio (at Final Concentration of Tested Compound) 10^-5 M [2] | Inhibition ratio (at Final Concentration of Tested Compound) 10^-4 M ([2]; 60 min)
18 | CSC(=S)N1CCN(Cc2cc(O)c(O)c(O)c2)CC1 [Compound 40, Methyl 4-(3,4,5-trihydroxybenzyl)-1-piperazinecarbodithioate] |  |  | 92.6% |  | 
19 | CSC(=S)N1CCN(Cc2cc(OC(C)=O)c(OC(C)=O)c(OC(C)=O)c2)CC1 [Compound 42, Methyl 4-(3,4,5-triacetoxybenzyl)-1-piperazinecarbodithioate] |  |  | 71.6% | 71.6% | 
20 | CSC(=S)N1CCN(Cc2c(C)c(O)c(C)c(C)c2O)CC1 [Compound 46, Methyl 4-[(2,5-dihydroxy-3,4,6-trimethyl)benzyl]-1-piperazinecarbodithioate] | 90 to 100% | 90 to 100% |  |  | 
21 | COc1ccc(C(=O)N2CCN(C(=S)SC)CC2)c(OC)c1OC [Compound 56, Methyl 4-(2,3,4-trimethoxybenzoyl)-1-piperazinecarbodithioate] | 90 to 100% | 90 to 100% |  |  | 
22 | COc1ccc(CCN2CCN(C(=S)SC)CC2)c(OC)c1OC [Compound 67, Methyl 4-{2-(2,3,4-trimethoxyphenyl)ethyl}-1-piperazinecarbodithioate] | 30 to 60% | 30 to 60% |  |  | 
23 | CSC(=S)N1CCN(CCc2ccc(O)c(O)c2O)CC1 [Compound 68, Methyl 4-{2-(2,3,4-trihydroxyphenyl)ethyl}-1-piperazinecarbodithioate] | 60 to 90% | 60 to 90% |  |  | 
24 | COc1ccc(C(=O)CN2CCN(C(=S)SC)CC2)c(OC)c1OC [Compound 71, Methyl 4-{2-(2,3,4-trimethoxyphenyl)-2-oxo}ethyl-1-piperazinecarbodithioate] | 60 to 90% | 30 to 60% |  |  | 
25 | CSC(=S)N1CCN(CC(=O)c2ccc(O)c(O)c2)CC1 [Compound 72, Methyl 4-{2-(3,4-dihydroxyphenyl)-2-oxo}ethyl-1-piperazinecarbodithioate] |  |  | 74.8% | 58.2% | 
26 | COc1cc(CN2CCN(C(=S)S)CC2)cc(OC)c1OC [Compound 89, Sodium 4-(3,4-5-trimethoxybenzyl)-1-piperazinecarbodithioate] |  |  |  |  | 90.2%
27 | COc1ccc(CN2CCN(C(=S)S)CC2)c(OC)c1OC [Compound 93, 4-(2,3,4-Trimethoxybenzyl)-1-piperazinecarbodithioic acid] | 90 to 100% | 90 to 100% |  |  | 
28 | Oc1ccc(CN2CCN(C(=S)SCc3ccccc3)CC2)c(O)c1O [Compound 100, Benzyl 4-(2,3,4-trihydroxybenzyl)-1-piperazinecarbodithioate] |  | 30 to 60% |  |  | 
29 | CSC(=S)N1CCN(Cc2c(O)c(O)cc3ccc(=O)oc23)CC1 [Compound 106, Methyl 4-(6,7-dihydroxycumarin-8-yl)methyl-1-piperazinecarbodithioate] |  |  | 89.0% | 88.1% | 
30 | COc1cc(CN2CCN(C(=S)S)CC2)cc(OC)c1OC [Compound 108, 4-(3,4,5-Trimethoxybenzyl)-1-piperazinecarbodithioic acid] |  |  |  | 39.2% | 72.6%
31 | Oc1cc(CN2CCN(C(=S)S)CC2)cc(O)c1O [Compound 109, 4-(3,4,5-Trihydroxybenzyl)-1-piperazinecarbodithioic acid] |  |  | 74.9% | 24.2% | 
32 | CSC(=S)N1CCN(CC2=CC(=O)C=CC2=O)CC1 [Compound 110, Methyl 4-(1,4-benzoquinonylmethyl)-1-piperazinecarbodithioate] | 90 to 100% | 90 to 100% |  |  | 
33 | COC1=C(OC)C(=O)C(CN2CCN(C(=S)SC)CC2)=C(C)C1=O [Compound 118, Methyl 4-(5,6-dimethoxy-3-methyl-1,4-benzoquinonylmethyl)-1-piperazinecarbodithioate] | 60 to 90% | 30 to 60% |  |  | 
